Measured values published in patent publication US9675072B2, “Tetrazolinone compound and application of same” (SUMITOMO CHEMICAL COMPANY, LIMITED, priority 2013, dated 2017).

Legend:
Assay type in all cases: in vivo
[1] = test system: wheat leaf blotch fungus (Septoria tritici); assay: Wheat leaf blotch control test, foliage spray on wheat; conditions: Test Example 11; 200 ppm foliage spray; wheat (APOGEE); inoculated 4 days after spraying
[2] = test system: rice blast fungus (Magnaporthe grisea); conditions: Test Example 7; 200 ppm foliage spray; rice (NIHONBARE); 6 days in contact with infected seedlings
[3] = test system: wheat rust fungus (Puccinia recondita); assay: Wheat rust control test, foliage spray on wheat; conditions: Test Example 8; 200 ppm foliage spray; wheat (SHIROGANE); inoculated 5 days after spraying
Experimental: (§1) The control effect was evaluated by visually observing the area of lesion spots on each of test plants at the time of investigation, and comparing the area of lesion spots on a plant treated with the present control agent with that on an untreated plant. The untreated plant is a plant tested under the same conditions as in Test Examples, except that foliage application of a diluted solution of a formulation containing the present compound with water is not performed.
Each of plastic pots was filled with sandy loam and wheat (cultivar: SHIROGANE) was sowed and grown in a greenhouse for 9 days. Each of the present compounds 1 to 5, 11, and 1 was diluted with water to adjust to a predetermined concentration of 500 ppm. The obtained diluted solution was sprayed over stems and leaves of the wheat so that they sufficiently adhered to the surface of the leaves of the wheat. After spraying, the plant was air-dried and cultivated at 20° C. for 5 days under illumination, and then inoculated by sprinkling with spores of wheat rust fungus (Puccinia recondita). After the inoculation, the plant was left to stand at 23° C. for one day under dark and high humidity condition, and cultivated under illumination at 20° C. for 8 days, and then the area of lesion spots was investigated. […]

[4] = test system: barley net blotch fungus (Pyrenophora teres); assay: Barley net blotch control test, foliage spray on barley; conditions: barley (MIKAMO GOLDEN), inoculated 2 days after spraying
Experimental: as §1
Each of plastic pots was filled with sandy loam and barley (cultivar: MIKAMO GOLDEN) was sowed and grown in a greenhouse for 7 days. Each of the present compounds 1 to 8, 10 to 12, and 14 was diluted with water to adjust to a predetermined concentration of 500 ppm. The obtained diluted solution was sprayed over stems and leaves of the barley so that it sufficiently adhered to the surface of the leaves of the barley. After spraying, the plant was air-dried. After 2 days, an aqueous suspension containing spores of barley net blotch fungus (Pyrenophora teres) was sprayed to inoculate the spores. After completion of the inoculation, the plant was left to stand for 3 days in a greenhouse at 23° C. in the daytime and 20° C. at night under high humidity condition and cultivated in a greenhouse for 7 days, and then the area of lesion spots was investigated. […]

[5] = test system: cucumber powdery mildew fungus (Sphaerotheca fuliginea, a QoI-resistant strain, cytochrome b position 143 glycine to alanine); assay: Cucumber powdery mildew control test, foliage spray on cucumber; conditions: Test Example 6, 500 ppm foliage spray, cucumber (SAGAMI HANJIRO), 8 days after inoculation

COc1c(C(F)F)c(-c2ccc(OCc3ccccc3-n3nnn(C)c3=O)c(C)c2)nn1C [compound 9]
≤ 30%: area of lesion spots on treated plant relative to untreated plant [1]

COc1cc(-c2cc(C)c(OCc3ccccc3-n3nnn(C)c3=O)cc2C)nn1C [compound 14]
≤ 30%: lesion area on treated plant with respect to the lesion area on the non-treated plant [2] | area of lesion spots on treated plant relative to untreated plant [3] | area of lesion spots on treated plant relative to untreated plant ([4]; Test Example 3, 500 ppm foliage spray) | area of lesion spots on treated plant relative to untreated plant ([4]; Test Example 9, 200 ppm foliage spray) | area of lesion spots on treated plant relative to untreated plant [5]
